Reference: patent US6362181B1, “Isoquinolones” (Warner-Lambert Company, priority 1996, dated 2002)
Converted amounts (≈) assume the structure as drawn.

How the values were obtained:
Test in all cases: Antibacterial assay, standard microtitration, MIC
Assay type in all cases: cell-based
B. subtilis RB1 = details: Bacillus subtilis, Gram positive, read-out: Minimum Inhibitory Concentrations, B. subtilis RB1
Method: (§1) The compounds of the present invention were tested against an assortment of gram negative and gram positive organisms using standard microtitration techniques (Cohen, et al., Antimicrob. Agents Chemother., 1985;28:766; Heifetz, et al. Antimicrob. Agents Chemother., 1974;6:124).

E. coli B90 = details: Escherichia coli, Gram negative, read-out: Minimum Inhibitory Concentrations, E. coli B90
Method: as §1

E. coli MC4100 = details: Escherichia coli, Gram negative, read-out: Minimum Inhibitory Concentrations, E. coli MC4100
Method: as §1

E. coli To1C = details: Escherichia coli, TO1C, read-out: Minimum Inhibitory Concentrations, E. coli To1C
Method: as §1

S. aureus 29213 = details: Staphylococcus aureus, Gram positive, read-out: Minimum Inhibitory Concentrations, S. aureus 29213
Method: as §1

S. pyogenes C203 = details: Streptococcus pyogenes, Gram positive, read-out: Minimum Inhibitory Concentrations, S. pyogenes C203
Method: as §1

`CCOc1cc2c3c(cccc3c1)C(=O)N(O)C2=O` [Example 14, 5-Ethoxy-2-hydroxy-benzo[de]isoquinoline-1,3-dione] was tested, and the MIC (B. subtilis RB1) was 1 µg/mL (≈ 3.89 µM), the MIC (E. coli B90) was 0.25 µg/mL (≈ 0.972 µM) and the MIC (E. coli MC4100) was 2 µg/mL (≈ 7.77 µM). For the same compound, the MIC (E. coli To1C) was 0.13 µg/mL (≈ 0.505 µM), the MIC (S. aureus 29213) was 8 µg/mL (≈ 31.1 µM) and the MIC (S. pyogenes C203) was greater than 64 µg/mL.

For `O=C1c2cccc3c(N4CCCC4)ccc(c23)C(=O)N1O` [Example 18, 2-Hydroxy-6-(pyrrolidin-1-yl)-benzo[de]isoquinoline-1,3-dione], the MIC (B. subtilis RB1) was 2 µg/mL (≈ 7.08 µM), the MIC (E. coli B90) was 4 µg/mL (≈ 14.2 µM) and the MIC (E. coli MC4100) was greater than 64 µg/mL. The MIC (E. coli To1C) was 1 µg/mL (≈ 3.54 µM), the MIC (S. aureus 29213) was 1 µg/mL (≈ 3.54 µM) and the MIC (S. pyogenes C203) was 4 µg/mL (≈ 14.2 µM).

In the case of `Cc1cc2c3c(cccc3c1)C(=O)N(O)C2=O` [Example 21, 2-Hydroxy-5-methyl-benzo[de]isoquinoline-1,3-dione], the MIC (B. subtilis RB1) is reported as 4 µg/mL (≈ 17.6 µM), the MIC (E. coli B90) is reported as 2 µg/mL (≈ 8.8 µM) and the MIC (E. coli MC4100) is reported as 8 µg/mL (≈ 35.2 µM). It also gave an MIC (E. coli To1C) of 1 µg/mL (≈ 4.4 µM), an MIC (S. aureus 29213) of 16 µg/mL (≈ 70.4 µM) and an MIC (S. pyogenes C203) of 64 µg/mL (≈ 282 µM).

`CC(=O)OCCOc1cc2c3c(cccc3c1)C(=O)N(O)C2=O` [Example 23, 2-Hydroxy-5-(2-acetoxy-ethoxy)-benzo[de]isoquinoline-1,3-dione] gave an MIC (B. subtilis RB1) of 4 µg/mL (≈ 12.7 µM), an MIC (E. coli B90) of 2 µg/mL (≈ 6.34 µM) and an MIC (E. coli MC4100) of 16 µg/mL (≈ 50.7 µM). The MIC (E. coli To1C) was 1 µg/mL (≈ 3.17 µM), the MIC (S. aureus 29213) was greater than 64 µg/mL and the MIC (S. pyogenes C203) was greater than 64 µg/mL.

`COc1cc2c3c(cccc3c1N1CCCCC1)C(=O)N(O)C2=O` [Example 35, 2-Hydroxy-5-methoxy-6-(piperidin-1-yl)-benzo[de]isoquinoline-1,3-dione] showed an MIC (B. subtilis RB1) of 2 µg/mL (≈ 6.13 µM), an MIC (E. coli B90) of 64 µg/mL (≈ 196 µM) and an MIC (E. coli MC4100) greater than 64 µg/mL. It also gave an MIC (E. coli To1C) of 64 µg/mL (≈ 196 µM), an MIC (S. aureus 29213) of 1 µg/mL (≈ 3.06 µM) and an MIC (S. pyogenes C203) of 4 µg/mL (≈ 12.3 µM).

For `O=C1c2cccc3c4c(cc(c23)C(=O)N1O)OCOC4` [Example 45, 5-Hydroxy-11H-8,10-dioxa-5-aza-benzo[de]anthracene-4,6-dione], the MIC (B. subtilis RB1) was 0.25 µg/mL (≈ 0.922 µM), the MIC (E. coli B90) was 0.13 µg/mL (≈ 0.479 µM) and the MIC (E. coli MC4100) was 0.5 µg/mL (≈ 1.84 µM). It also gave an MIC (E. coli To1C) of 0.13 µg/mL (≈ 0.479 µM), an MIC (S. aureus 29213) of 1 µg/mL (≈ 3.69 µM) and an MIC (S. pyogenes C203) of 8 µg/mL (≈ 29.5 µM).

`O=C1c2ccc([N+](=O)[O-])c3c([N+](=O)[O-])ccc(c23)C(=O)N1O` [Example 48, 2-Hydroxy-6,7-dinitro-benzo[de]isoquinoline-1,3-dione] was tested, and the MIC (B. subtilis RB1) was 8 µg/mL (≈ 26.4 µM), the MIC (E. coli B90) was 4 µg/mL (≈ 13.2 µM) and the MIC (E. coli MC4100) was 16 µg/mL (≈ 52.8 µM). It also gave an MIC (E. coli To1C) of 4 µg/mL (≈ 13.2 µM), an MIC (S. aureus 29213) of 2 µg/mL (≈ 6.6 µM) and an MIC (S. pyogenes C203) of 1 µg/mL (≈ 3.3 µM).

`O=C1c2cccc3c(N4CCCCC4)c(Br)cc(c23)C(=O)N1O` [Example 49, 5-Bromo-2-hydroxy-6-(piperidine-1-yl)-benzo[de]isoquinoline-1,3-dione] showed an MIC (B. subtilis RB1) of 1 µg/mL (≈ 2.67 µM), an MIC (E. coli B90) of 4 µg/mL (≈ 10.7 µM) and an MIC (E. coli MC4100) of 64 µg/mL (≈ 171 µM). It also gave an MIC (E. coli To1C) of 8 µg/mL (≈ 21.3 µM), an MIC (S. aureus 29213) of 2 µg/mL (≈ 5.33 µM) and an MIC (S. pyogenes C203) of 64 µg/mL (≈ 171 µM).

With `CN(C)c1c(Br)cc2c3c(cccc13)C(=O)N(O)C2=O` [Example 53, 5-Bromo-6-dimethylamino-2-hydroxy-benzo[de]isoquinoline-1,3-dione] the MIC (B. subtilis RB1) was 2 µg/mL (≈ 5.97 µM), the MIC (E. coli B90) was 2 µg/mL (≈ 5.97 µM) and the MIC (E. coli MC4100) was 64 µg/mL (≈ 191 µM). The MIC (E. coli To1C) was 1 µg/mL (≈ 2.98 µM), the MIC (S. aureus 29213) was 4 µg/mL (≈ 11.9 µM) and the MIC (S. pyogenes C203) was 32 µg/mL (≈ 95.5 µM).

For `Cl.N[C@H]1CCN(c2c(Br)cc3c4c(cccc24)C(=O)N(O)C3=O)C1` [Example 54, (S)-6-(3-Amino-pyrrolidin-1-yl)-5-bromo-2-hydroxy-1H-benzo[de]isoquinoline-1,3-dione, Hydrochloride], the MIC (B. subtilis RB1) was 2 µg/mL, the MIC (E. coli B90) was 0.5 µg/mL and the MIC (E. coli MC4100) was 2 µg/mL. It also gave an MIC (E. coli To1C) of 0.5 µg/mL, an MIC (S. aureus 29213) of 8 µg/mL and an MIC (S. pyogenes C203) of 4 µg/mL.

In the case of `N#Cc1cc2c3c(cccc3c1N1CCCC1)C(=O)N(O)C2=O` [Example 57, 5-Cyano-2-hydroxy-6-(pyrrolidin-1-yl)-benzo[de]isoquinoline-1,3-dione], the MIC (B. subtilis RB1) is reported as 1 µg/mL (≈ 3.25 µM), the MIC (E. coli B90) is reported as 0.5 µg/mL (≈ 1.63 µM) and the MIC (E. coli MC4100) is reported as 32 µg/mL (≈ 104 µM). It also gave an MIC (E. coli To1C) of 0.5 µg/mL (≈ 1.63 µM), an MIC (S. aureus 29213) of 4 µg/mL (≈ 13 µM) and an MIC (S. pyogenes C203) of 32 µg/mL (≈ 104 µM).

Compound `CN(C)CCN1C(=O)c2cccc3cc([N+](=O)[O-])cc(c23)C1=O` [Mitonafide, mitonafide, reference compound] has an MIC (B. subtilis RB1) of 16 µg/mL (≈ 51.1 µM), an MIC (E. coli B90) of 8 µg/mL (≈ 25.5 µM) and an MIC (E. coli MC4100) of 32 µg/mL (≈ 102 µM). The MIC (S. aureus 29213) was 32 µg/mL (≈ 102 µM) and the MIC (S. pyogenes C203) was 4 µg/mL (≈ 12.8 µM).
